The record followed here is patent US20090143396A1, “Sulfonyl-Substituted Aryl Compounds as Modulators of Peroxisome Proliferator Activated Receptors” (priority 2005, published 2009).

Each structure is given as a SMILES string.

Holding throughout (type): cell-based, murine and human
Holding throughout (conditions): GAL4 chimeric receptor, 20-24 hours treatment

Test [1] deals with T1, PPAR-delta (UniProt Q03181).
T1 sequence (Q03181 1-441): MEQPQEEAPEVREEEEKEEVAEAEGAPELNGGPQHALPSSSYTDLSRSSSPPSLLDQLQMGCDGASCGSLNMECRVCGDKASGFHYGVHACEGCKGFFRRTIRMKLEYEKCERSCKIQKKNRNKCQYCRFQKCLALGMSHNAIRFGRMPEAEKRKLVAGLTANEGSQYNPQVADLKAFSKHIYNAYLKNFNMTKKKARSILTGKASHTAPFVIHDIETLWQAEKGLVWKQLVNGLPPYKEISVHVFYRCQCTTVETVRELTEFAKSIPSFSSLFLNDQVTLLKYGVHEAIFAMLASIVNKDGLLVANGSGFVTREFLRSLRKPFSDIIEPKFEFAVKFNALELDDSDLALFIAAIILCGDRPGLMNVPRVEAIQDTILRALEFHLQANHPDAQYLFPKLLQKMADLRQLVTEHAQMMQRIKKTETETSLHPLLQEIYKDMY
Nature of the test: Transient transfection transactivation assay in CV-1 cells, GAL4-PPAR-delta LBD chimera, luciferase reporter. An excerpt: (§1) Compounds may be screened for functional potency in transient transfection assays in CV-1 cells for their ability to activate the PPAR subtypes (transactivation assay). A previously established chimeric receptor system was utilized to allow comparison of the relative transcriptional activity of the receptor subtypes on the same synthetic response element and to prevent endogenous receptor activation from complicating the interpretation of results. See, for example, Lehmann, J. M.; Moore, L. B.; Smith-Oliver, T. A; Wilkinson, W. O.; Willson, T. M.; Kliewer, S. A., An antidiabetic thiazolidinedione is a high affinity ligand for peroxisome proliferator-activated receptor […], J. Biol. Chem., 1995, 270, 12953-6. The ligand binding domains for murine and human PPAR-alpha, PPAR-gamma, and PPAR-delta are each fused to the yeast transcription factor GAL4 DNA binding domain. CV-1 cells were transiently transfected with expression vectors for the respective PPAR chimera along with a reporter construct containing four or five copies of the GAL4 DNA binding site driving expression of luciferase. After 8-16 h, the cells are replated into multi-well assay plates and the media is exchanged to phenol-red free DME medium supplemented with 5% delipidated calf serum. 4 hours after replating, cells were treated with either compounds or 1% DMSO for 20-24 hours. Luciferase activity was then assayed with Britelite (Perkin Elmer) following the manufacturer's protocol and measured with either the Perl in Elmer Viewlux or Molecular Devices Acquest (see, for example, Kliewer, S. A., et. al. Cell 1995, 83, 813-819). Rosiglitazone is used as a positive control in the […] assay. Wy-14643 and GW7647 is used as a positive control in the […] assay. GW501516 is used as the positive control in the PPARδ assay.
(§2) Compounds of Examples 1-10 were assayed to measure their biological activity with respect to their EC50 values and efficacy for modulating PPAR-alpha, PPAR-gamma, and PPAR-delta as set forth in Table 1.
(In general: Reporter assays use an easily measured gene product as a stand-in for the process of interest.)

The target in test [2] is T2, PPAR-gamma (UniProt P37231).
T2 sequence (P37231 1-505): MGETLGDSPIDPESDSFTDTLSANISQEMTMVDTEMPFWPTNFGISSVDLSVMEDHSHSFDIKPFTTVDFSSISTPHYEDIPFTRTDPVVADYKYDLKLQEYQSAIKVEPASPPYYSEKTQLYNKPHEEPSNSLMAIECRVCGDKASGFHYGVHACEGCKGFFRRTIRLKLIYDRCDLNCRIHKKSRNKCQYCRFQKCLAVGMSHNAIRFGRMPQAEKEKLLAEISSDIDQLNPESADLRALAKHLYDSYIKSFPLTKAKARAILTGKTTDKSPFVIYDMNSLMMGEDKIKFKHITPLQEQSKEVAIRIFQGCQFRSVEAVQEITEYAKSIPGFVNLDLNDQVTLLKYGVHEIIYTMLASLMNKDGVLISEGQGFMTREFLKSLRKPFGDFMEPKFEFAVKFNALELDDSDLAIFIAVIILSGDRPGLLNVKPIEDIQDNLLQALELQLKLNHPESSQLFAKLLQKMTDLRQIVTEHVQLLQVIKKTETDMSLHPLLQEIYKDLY
Put plainly: Transient transfection transactivation assay in CV-1 cells, GAL4-PPAR-gamma LBD chimera, luciferase reporter.
Text: as §1, §2

The target in test [3] is T3, PPAR-alpha (UniProt Q07869).
T3 sequence (Q07869 1-468): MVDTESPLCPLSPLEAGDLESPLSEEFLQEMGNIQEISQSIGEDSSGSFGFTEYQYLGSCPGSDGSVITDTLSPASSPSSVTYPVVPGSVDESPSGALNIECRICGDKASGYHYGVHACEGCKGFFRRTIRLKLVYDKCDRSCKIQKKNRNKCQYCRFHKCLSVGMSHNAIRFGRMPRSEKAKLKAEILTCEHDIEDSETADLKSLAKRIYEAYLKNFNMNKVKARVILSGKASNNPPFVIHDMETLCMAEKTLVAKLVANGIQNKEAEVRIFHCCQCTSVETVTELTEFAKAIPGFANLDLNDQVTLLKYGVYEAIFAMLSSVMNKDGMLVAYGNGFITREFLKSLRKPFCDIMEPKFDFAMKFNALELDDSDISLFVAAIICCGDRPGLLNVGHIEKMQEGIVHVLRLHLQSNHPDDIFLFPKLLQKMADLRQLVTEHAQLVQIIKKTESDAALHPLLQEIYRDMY
Nature of the test: Transient transfection transactivation assay in CV-1 cells, GAL4-PPAR-alpha LBD chimera, luciferase reporter.
Text: as §1, §2

Broadly, the EC50 is the concentration that produces a half-maximal response. Low readings indicate greater potency, high ones weaker potency. As to `Cc1ccc(S(=O)(=O)N2[C@H](C)CN(Cc3ccc(OC(F)(F)F)cc3)C[C@@H]2C)cc1CC(=O)O` [Example 1, {5-[2,6-Dimethyl-4-(4-trifluoromethoxy-benzyl)-piperazine-1-sulfonyl]-2-methyl-phenyl}-acetic acid], the values for the EC50 in test [1], in test [2] and in test [3] were < 5 µM, > 100 µM and < 5 µM, respectively.
With `Cc1ccc(S(=O)(=O)N2[C@H](C)CN(Cc3ccc(C(F)(F)F)cc3)C[C@@H]2C)cc1CC(=O)O` [Example 2, {5-[2,6-Dimethyl-4-(4-trifluoromethyl-benzyl)-piperazine-1-sulfonyl]-2-methyl-phenyl}-acetic acid], the EC50 in test [1] was < 5 µM; in test [2], 5 to 100 µM; in test [3], < 5 µM.
`Cc1ccc(S(=O)(=O)N2CCN(Cc3ccc(OC(F)(F)F)cc3)CC2)cc1CC(=O)O` [Example 3, {2-Methyl-5-[4-(4-trifluoromethoxy-benzyl)-piperazine-1-sulfonyl]-phenyl}-acetic acid]: the half-maximal effective concentration (EC50) in test [1], in test [2] and in test [3] was < 5 µM throughout.
On to `Cc1ccc(S(=O)(=O)N2CCN(Cc3ccc(C(F)(F)F)cc3)CC2)cc1CC(=O)O` [Example 4, {2-Methyl-5-[4-(4-trifluoromethyl-benzyl)-piperazine-1-sulfonyl]-phenyl}-acetic acid], for which the EC50 in test [1], in test [2] and in test [3] was < 5 µM in each case.
For the compound `Cc1cc(CC(=O)O)cc(S(=O)(=O)N2[C@H](C)CN(Cc3ccc(OC(F)(F)F)cc3)C[C@@H]2C)c1` [Example 5, {3-[2,6-Dimethyl-4-(4-trifluoromethoxy-benzyl)-piperazine-1-sulfonyl]-5-methyl-phenyl}-acetic acid], the EC50 in test [1] was < 5 µM; in test [2], > 100 µM; in test [3], 5 to 100 µM.
`C[C@@H]1CN(Cc2ccc(OC(F)(F)F)cc2)C[C@H](C)N1S(=O)(=O)c1cccc(CC(=O)O)c1` [Example 6, {3-[2,6-Dimethyl-4-(4-trifluoromethoxy-benzyl)-piperazine-1-sulfonyl]-phenyl}-acetic acid]: the EC50 is < 5 µM in test [1], < 5 µM in test [2] and 5 to 100 µM in test [3].
Turning to `Cc1ccc(S(=O)(=O)N2[C@H](C)CN(Cc3ccc(Cl)c(Cl)c3)C[C@@H]2C)cc1CC(=O)O` [Example 7, {5-[4-(3,4-Dichloro-benzyl)-2,6-dimethyl-piperazine-1-sulfonyl]-2-methyl-phenyl}-acetic acid], the values for the EC50 in test [1], in test [2] and in test [3] were < 5 µM, > 100 µM and < 5 µM, respectively.
In the case of `C#Cc1cc(CC(=O)O)cc(S(=O)(=O)N2CCN(Cc3ccc(OC(F)(F)F)cc3)CC2)c1` [Example 8, 2-{3-Ethynyl-5-[-4-(4-trifluoromethoxybenzyl)piperazine-1-ylsulfonyl]phenyl}acetic acid], the EC50 in test [1], in test [2] and in test [3] was < 5 µM in each case.
As to `C#Cc1cc(CC(=O)O)cc(S(=O)(=O)N2CCN(Cc3cccc(OC(F)(F)F)c3)CC2)c1` [Example 9, 2-{3-Ethynyl-5-[4-(3-trifluoromethoxybenzyl)piperazine-1-ylsulfonyl]phenyl}acetic acid], the EC50 in test [1], in test [2] and in test [3] was < 5 µM each time.
With `Cc1ccc(S(=O)(=O)N2[C@H](C)CN(C(=O)Cc3ccc(OC(F)(F)F)cc3)C[C@@H]2C)cc1CC(=O)O` [Example 10, 2-(5-((2R,6S)-2,6-dimethyl-4-(2-(4-(trifluoromethoxy)phenyl)acetyl)piperazin-1-ylsulfonyl)-2-methylphenyl)acetic acid], the EC50 in test [1] is < 5 µM; in test [2] it was > 100 µM; in test [3] it was > 100 µM.
